# Data taken from patent US20160000912A1, “COMBINATION THERAPY OF A TYPE II ANTI-CD20 ANTIBODY WITH A PROTEASOME INHIBITOR” (Roche Glycart AG, priority 2007, published 2016).
# How the values were obtained:
# [1] = system: SU-DHL-4 human Non-Hodgkin-Lymphoma (NHL) cells; assay: Tumor growth inhibition study in vivo, SU-DHL-4 xenografts; set-up: species or system SCID beige mice; conditions: 1 mg/kg i.p. once weekly
# Method: Type II anti-CD20 antibody B-HH6-B-KV1 GE(=humanized B-Ly1, glycoengineered B-HH6-B-KV1, see WO 2005/044859 and WO 2007/031875) was provided as stock solution (c=9.4 mg/ml) from GlycArt, Schlieren, Switzerland. Antibody buffer included histidine, trehalose and polysorbate 20. Antibody solution was diluted appropriately in PBS from stock for prior injections.
# Proteasome inhibitor bortezomib was purchased as clinical formulation from Janssen-Cilag GmbH, Neuss, Germany. Dilution was adjusted from reconstituted stock solution.
# SU-DHL-4 human Non-Hodgkin-Lymphoma (NHL) cells (Chang, H., et al., Leuk Lymphoma. 8 (1992) 129-36) were kindly provided from DSMZ, Braunschweig. Tumor cell line was routinely cultured in RPMI medium (PAA, Laboratories, Austria) supplemented with 10% fetal bovine serum (PAA Laboratories, Austria) and 2 mM L-glutamine, at 37° C. in a water-saturated atmosphere at 5% CO2. Passage 5 was used for transplantation. […]
# Animals were controlled daily for clinical symptoms and detection of adverse effects. For monitoring throughout the experiment body weight of animals was documented two times weekly and tumor volume was measured by caliper after staging. […]
# [2] = target: T1, CD20 on Raji cells (ATCC-No. CCL-86) (Homo sapiens, UniProt P11836); assay: Ratio of the binding capacities to CD20 on Raji cells compared to rituximab (direct immunofluorescence, Cy5, FACSArray); conditions: Cy5-conjugated antibodies
# T1 construct: generated by direct immunofluorescence using the Burkitt's lymphoma cell line Raji (ATCC-No. CCL-86); host or cells: Raji cells (Burkitt's lymphoma)
# T1 sequence (P11836 1-297): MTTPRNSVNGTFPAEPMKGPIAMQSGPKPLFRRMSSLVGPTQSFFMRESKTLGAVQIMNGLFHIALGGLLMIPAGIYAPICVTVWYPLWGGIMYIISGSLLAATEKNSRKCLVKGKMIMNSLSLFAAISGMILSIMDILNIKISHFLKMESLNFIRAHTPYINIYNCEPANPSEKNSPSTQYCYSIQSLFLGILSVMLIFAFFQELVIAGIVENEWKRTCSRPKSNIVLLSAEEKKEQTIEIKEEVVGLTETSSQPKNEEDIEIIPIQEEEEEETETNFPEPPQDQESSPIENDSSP
# Method: MFI is the mean fluorescent intensity. The “Cy5-labeling ratio” as used herein means the number of Cy5-label molecules per molecule antibody.
# Raji cells (ATCC-No. CCL-86) were maintained in culture in RPMI-1640 medium (PanBiotech GmbH, Cat.-No. PO4-18500) containing 10% FCS (Gibco, Cat.-No.10500-064). […] 5*10^5 cells per sample were stained for 30 min at 4° C. Afterwards, cells were washed in culture medium. Propidium iodide (PI) staining was used to exclude dead cells.
# Then the ratio of the binding capacities to CD20 on Raji cells (ATCC-No. CCL-86) is calculated according to the following formula: […]
Compound,antitumor activity as single agent (in words) [1],binding capacity compared to rituximab (in words) [2]
CC(C)C[C@H](NC(=O)[C@H](Cc1ccccc1)NC(=O)c1cnccn1)B(O)O [bortezomib],only slightly active,
B-HH6-B-KV1: Type II anti-CD20 antibody (humanized B-Ly1 antibody) of Example 2; FIG. 2 legend calls it B-HH6-B-KV1 GE,,reduces binding capacity compared to rituximab
